The test system of one assay is WEEV California. The experiment in a line: microbe, parasite or virus in culture. It is filed as cell-based. The settings on record: Western equine encephalitis virus, Vero 76, 48 h, read-out: WEEV California EC50 nM.
The subject of another assay is VEEV TC83. The assay is described as follows: microbe, parasite or virus in culture. It is filed as cell-based. The settings on record: Venezuelan equine encephalitis virus, Vero 76, 48 h, read-out: VEEV TC83 EC50 nM.

Some results are limits rather than exact numbers.

Consider `COc1ccc(-n2c(C3CCCN3)nc3c(-c4ccc(N5CCOCC5)cc4)cc(C#N)cc3c2=O)cc1F` (stereo not shown) [Example 153, 3-(3-Fluoro-4-methoxyphenyl)-8-(4-morpholinophenyl)-4-oxo-2-(pyrrolidin-2-yl)-3,4-dihydroquinazoline-6-carbonitrile], for which the EC50 with WEEV California and with VEEV TC83 was 1 to 50 nM in each case.
For `COc1ccc(-n2c([C@@H]3C[C@@H](F)CN3)nc3c(C)cc([N+](=O)[O-])cc3c2=O)cc1F` [Example 64, 2-((2S,4R)-4-fluoropyrrolidin-2-yl)-3-(3-fluoro-4-methoxyphenyl)-8-methyl-6-nitroquin-azolin-4 (3H)-one], the EC50 in the assay with WEEV California and in the assay on VEEV TC83 was more than 1000 nM in each case.
`O=c1c2cc([N+](=O)[O-])ccc2nc(C2CCCN2)n1-c1ccc(F)cc1` (stereo not shown) [Example 42, 3-(4-fluorophenyl)-6-nitro-2-(pyrrolidin-2-yl)quinazolin-4 (3H)-one]: the EC50 (in general, the concentration needed to bring the measured effect to its halfway point) is 151 to 500 nM in the assay on WEEV California and 51 to 150 nM in the assay with VEEV TC83.
For `O=c1c2cc([N+](=O)[O-])ccc2nc([C@H]2CCCN2)n1-c1ccc(Cl)cc1` [Example 23, (R)-3-(4-chlorophenyl)-6-nitro-2-(pyrrolidin-2-yl) quinazolin-4 (3H)-one], the EC50 in the assay with WEEV California and in the assay with VEEV TC83 was 1 to 50 nM in each case.
For the compound `COc1c(F)cc(-n2c(C3CCNC3)nc3c(-c4ccc(C)nc4)cc(C#N)cc3c2=O)cc1F` (stereo not shown) [Example 188, 3-(3,5-difluoro-4-methoxyphenyl)-8-(6-methylpyridin-3-yl)-4-oxo-2-(pyrrolidin-3-yl)-3,4-dihydroquinazoline-6-carbonitrile], the EC50 in the assay on WEEV California and with VEEV TC83 was 1 to 50 nM in each case.
In the case of `COc1ccc(-n2c(C3CCCN3Cc3ccc(F)cc3)nc3c(C)cc([N+](=O)[O-])cc3c2=O)cc1F` (stereo not shown) [Example 204, 3-(3-fluoro-4-methoxyphenyl)-2-(1-(4-fluorobenzyl)pyrrolidin-2-yl)-8-methyl-6-nitroquinazolin-4 (3H)-one], the EC50 in the assay with WEEV California is 151 to 500 nM; in the assay on VEEV TC83, 51 to 150 nM.
The like results for `CN1CCC(N2CCC[C@@H]2c2nc3ccc([N+](=O)[O-])cc3c(=O)n2-c2ccccc2)CC1` [Example 4, (R)-2-(1-(1-methylpiperidin-4-yl)pyrrolidin-2-yl)-6-nitro-3-phenylquinazolin-4 (3H)-one] were, in that order, more than 1000 nM and 151 to 500 nM.
Consider `COc1ccc(-n2c([C@@H]3CCCN3)nc3c(-c4ccncc4)cc(C#N)cc3c2=O)cc1F` [Example 110, (S)-3-(3-fluoro-4-methoxyphenyl)-4-oxo-8-(pyridin-4-yl)-2-(pyrrolidin-2-yl)-3,4-dihydroquinazoline-6-carbonitrile], for which the EC50 in the assay with WEEV California and in the assay on VEEV TC83 was 1 to 50 nM in each case.
Consider `COc1ccc(-n2c(C3CCCN3)nc3c(-c4ccnc(C)c4)cc(C#N)cc3c2=O)cc1F` (stereo not shown) [Example 138, 3-(3-fluoro-4-methoxyphenyl)-8-(2-methylpyridin-4-yl)-4-oxo-2-(pyrrolidin-2-yl)-3,4-dihydroquinazoline-6-carbonitrile], for which the 50% effective concentration (EC50) with WEEV California and in the assay on VEEV TC83 was 1 to 50 nM in each case.
Consider `Cc1cccc(-n2c([C@H]3CCCN3)nc3ccc([N+](=O)[O-])cc3c2=O)c1` [Example 36, (R)-6-nitro-2-(pyrrolidin-2-yl)-3-(m-tolyl)quinazolin-4 (3H)-one], for which the EC50 in the assay on WEEV California is 501 to 1000 nM; with VEEV TC83 it was 51 to 150 nM.
For the compound `COc1ccc(-n2c(C[C@H]3CCCN3)nc3c(-c4ccc(C)nc4)cc(C#N)cc3c2=O)cc1F` [Example 117, (R)-3-(3-fluoro-4-methoxyphenyl)-8-(6-methylpyridin-3-yl)-4-oxo-2-(pyrrolidin-2-ylmethyl)-3,4-dihydroquinazoline-6-carbonitrile], the EC50 in the assay with WEEV California fell in the range of 501 to 1000 nM; in the assay with VEEV TC83, 151 to 500 nM.
`COc1ccc(-n2c(-c3ccon3)nc3c(-c4ccc(C)nc4)cc(C#N)cc3c2=O)cc1F` [Example 199, 3-(3-fluoro-4-methoxyphenyl)-2-(isoxazol-3-yl)-8-(6-methylpyridin-3-yl)-4-oxo-3,4-dihydroquinazoline-6-carbonitrile]: the results for the EC50 in the assay on WEEV California and in the assay on VEEV TC83 were more than 1000 nM and 501 to 1000 nM, respectively.
In the case of `COc1ccc(-n2c(C3CCCN3)nc3c(-c4ccc(OC)c(OC)c4)cc(C#N)cc3c2=O)cc1F` (stereo not shown) [Example 152, 8-(3,4-Dimethoxyphenyl)-3-(3-fluoro-4-methoxyphenyl)-4-oxo-2-(pyrrolidin-2-yl)-3,4-dihydroquinazoline-6-carbonitrile], the EC50 in the assay on WEEV California and in the assay on VEEV TC83 was 1 to 50 nM each time.
On to `COc1ccc(-n2c([C@@H]3CCCN3)nc3c(-c4cccnc4)cc([N+](=O)[O-])cc3c2=O)cc1F` [Example 83, (S)-3-(3-fluoro-4-methoxyphenyl)-6-nitro-8-(pyridin-3-yl)-2-(pyrrolidin-2-yl) quinazolin-4 (3H)-one], for which the EC50 in the assay with WEEV California and in the assay with VEEV TC83 was 1 to 50 nM each time.
For `Cc1cc([N+](=O)[O-])cc2c(=O)n(-c3ccc(Cl)c(F)c3)c([C@H]3CCCN3)nc12` [Example 60, (R)-3-(4-chloro-3-fluorophenyl)-8-methyl-6-nitro-2-(pyrrolidin-2-yl) quinazolin-4 (3H)-one], the EC50 in the assay with WEEV California and in the assay on VEEV TC83 was 1 to 50 nM throughout.
Take `COc1ccc(-n2c([C@]3(C)CCCN3)nc3c(-c4ccc(C)nc4)cc(C#N)cc3c2=O)cc1F` [Example 142, (S)-3-(3-fluoro-4-methoxyphenyl)-8-(6-methylpyridin-3-yl)-2-(2-methylpyrrolidin-2-yl)-4-oxo-3,4-dihydroquinazoline-6-carbonitrile]: the EC50 in the assay with WEEV California and in the assay on VEEV TC83 was 1 to 50 nM throughout.
As to `COc1ccc(-n2c([C@H]3CCCN3)nc3c(Br)cc(C#N)cc3c2=O)cc1F` [Example 96, (R)-8-bromo-3-(3-fluoro-4-methoxyphenyl)-4-oxo-2-(pyrrolidin-2-yl)-3,4-dihydroquinazoline-6-carbonitrile], the EC50 with WEEV California and in the assay with VEEV TC83 was 1 to 50 nM in each case.
With `COc1ccc(-n2c([C@H]3CCCN3)nc3c(C4CC4)cc([N+](=O)[O-])cc3c2=O)cc1` [Example 95, (R)-8-cyclopropyl-3-(4-methoxyphenyl)-6-nitro-2-(pyrrolidin-2-yl) quinazolin-4 (3H)-one], the EC50 is 51 to 150 nM with WEEV California and 1 to 50 nM in the assay with VEEV TC83.
Consider `COc1ccc(-n2c(-c3ccccn3)nc3c(-c4ccc(C)nc4)cc(C#N)cc3c2=O)cc1F` [Example 196, 3-(3-fluoro-4-methoxyphenyl)-8-(6-methylpyridin-3-yl)-4-oxo-2-(pyridin-2-yl)-3,4-dihydroquinazoline-6-carbonitrile], for which the EC50 in the assay on WEEV California and with VEEV TC83 was more than 1000 nM throughout.
For the compound `COc1ccc(-c2cc(C#N)cc3c(=O)n(-c4ccc(OC)c(F)c4)c(C4CCCN4)nc23)cc1F` (stereo not shown) [Example 149, 3,8-Bis(3-fluoro-4-methoxyphenyl)-4-oxo-2-(pyrrolidin-2-yl)-3,4-dihydroquinazoline-6-carbonitrile], the EC50 in the assay on WEEV California and in the assay with VEEV TC83 was 1 to 50 nM each time.
As to `COc1ccc(-n2c(-c3ncco3)nc3c(-c4ccc(C)nc4)cc(C#N)cc3c2=O)cc1F` [Example 202, 3-(3-fluoro-4-methoxyphenyl)-8-(6-methylpyridin-3-yl)-2-(oxazol-2-yl)-4-oxo-3,4-dihydroquinazoline-6-carbonitrile], the EC50 in the assay on WEEV California and with VEEV TC83 was more than 1000 nM throughout.
As to `COc1ccc(-n2c(-c3cncn3C)nc3c(-c4ccc(C)nc4)cc(C#N)cc3c2=O)cc1F` [Example 201, 3-(3-fluoro-4-methoxyphenyl)-2-(1-methyl-1H-imidazol-5-yl)-8-(6-methylpyridin-3-yl)-4-oxo-3,4-dihydroquinazoline-6-carbonitrile], the EC50 in the assay with WEEV California and in the assay with VEEV TC83 was more than 1000 nM throughout.
`COc1ccc(-n2c([C@H]3CCCN3)nc3cc(C)c([N+](=O)[O-])cc3c2=O)cc1` [Example 43, (R)-3-(4-methoxyphenyl)-7-methyl-6-nitro-2-(pyrrolidin-2-yl) quinazolin-4 (3H)-one]: the EC50 with WEEV California and in the assay on VEEV TC83 was 1 to 50 nM each time.
In the case of `O=c1c2cc([N+](=O)[O-])ccc2nc(C2CCCN2)n1-c1ccccc1Cl` (stereo not shown) [Example 38, 3-(2-chlorophenyl)-6-nitro-2-(pyrrolidin-2-yl) quinazolin-4 (3H)-one], the EC50 in the assay on WEEV California and with VEEV TC83 was more than 1000 nM each time.
For the compound `COc1ccc(-n2c(C3CCCN3)nc3c(-c4ccc(O)cc4)cc(C#N)cc3c2=O)cc1F` (stereo not shown) [Example 158, 3-(3-Fluoro-4-methoxyphenyl)-8-(4-hydroxyphenyl)-4-oxo-2-(pyrrolidin-2-yl)-3,4-dihydroquinazoline-6-carbonitrile], the EC50 with WEEV California and in the assay on VEEV TC83 was 501 to 1000 nM each time.
With `COc1ccc(-n2c(C3C[C@@H]4CCC[C@@H]4N3)nc3c(-c4ccc(C)nc4)cc(C#N)cc3c2=O)cc1F` (stereo partly drawn) [Example 140, 3-(3-fluoro-4-methoxyphenyl)-8-(6-methylpyridin-3-yl)-2-((3aS,6aS)-octahydrocyclopenta[b]pyrrol-2-yl)-4-oxo-3,4-dihydroquinazoline-6-carbonitrile], the EC50 in the assay with WEEV California and with VEEV TC83 was 1 to 50 nM throughout.
Consider `COc1cc(F)ccc1-n1c([C@H]2CCCN2)nc2ccc([N+](=O)[O-])cc2c1=O` [Example 26, (R)-3-(2-methoxy-4-fluorophenyl)-6-nitro-2-(pyrrolidin-2-yl) quinazolin-4 (3H)-one], for which the EC50 in the assay with WEEV California and in the assay with VEEV TC83 was more than 1000 nM each time.
Turning to `COc1ccc(-n2c([C@H]3CCCN3)nc3c(-c4cncnc4)cc([N+](=O)[O-])cc3c2=O)cc1` [Example 87, (R)-3-(4-methoxyphenyl)-6-nitro-8-(pyrimidin-5-yl)-2-(pyrrolidin-2-yl) quinazolin-4 (3H)-one], the EC50 in the assay on WEEV California and with VEEV TC83 was 1 to 50 nM each time.
On to `O=c1c2cc([N+](=O)[O-])ccc2nc(C2CCCN2)n1-c1ccccc1F` (stereo not shown) [Example 41, 3-(2-fluorophenyl)-6-nitro-2-(pyrrolidin-2-yl)quinazolin-4 (3H)-one], for which the half-maximal effective concentration (EC50) in the assay on WEEV California is more than 1000 nM; in the assay on VEEV TC83, 501 to 1000 nM.

The record behind these values is US20220348558A1, “INHIBITORS OF ENCEPHALITIC ALPHAVIRUSES” (priority 2019, published 2022).
